In PubChem BioAssay (NCI):
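Test compounds were applied to cells in 96-well plates for 48 hours at 5 doses. GI50 marks 50% less growth. Definition used: TGI = concentration required for complete inhibition of growth.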

Tests used:
Test in all cases: growth of human tumour cells (NCI), 48 h
[1] = test system: 786-0 renal
[2] = test system: A549 NSCLC
[3] = test system: ACHN renal
[4] = test system: CAKI-1 renal
[5] = test system: CCRF-CEM leukemia
[6] = test system: COLO 205 colon
[7] = test system: DLD-1 colon
[8] = test system: DMS 114 small cell lung
[9] = test system: DMS 273 small cell lung
[10] = test system: EKVX NSCLC
[11] = test system: HCC-2998 colon
[12] = test system: HCT-116 colon
[13] = test system: HCT-15 colon
[14] = test system: HL-60(TB) leukemia
[15] = test system: HOP-18 NSCLC
[16] = test system: HOP-62 NSCLC
[17] = test system: HOP-92 NSCLC
[18] = test system: HT29 colon
[19] = test system: IGROV1 ovarian
[20] = test system: K-562 leukemia
[21] = test system: KM12 colon
[22] = test system: KM20L2 colon
[23] = test system: LOX IMVI melanoma
[24] = test system: LXFL 529 NSCLC
[25] = test system: M14 melanoma
[26] = test system: M19-MEL melanoma
[27] = test system: MALME-3M melanoma
[28] = test system: MOLT-4 leukemia
[29] = test system: NCI-H226 lung
[30] = test system: NCI-H460 lung
[31] = test system: OVCAR-3 ovarian
[32] = test system: OVCAR-4 ovarian
[33] = test system: OVCAR-5 ovarian
[34] = test system: OVCAR-8 ovarian
[35] = test system: RPMI-8226 leukemia
[36] = test system: RXF 393 renal
[37] = test system: RXF-631 renal
[38] = test system: SF-295 CNS
[39] = test system: SK-MEL-2 melanoma
[40] = test system: SK-MEL-28 melanoma
[41] = test system: SK-MEL-5 melanoma
[42] = test system: SK-OV-3 ovarian
[43] = test system: SN12C renal
[44] = test system: SNB-19 CNS
[45] = test system: SNB-75 CNS
[46] = test system: SNB-78 CNS
[47] = test system: SW-620 colon
[48] = test system: TK-10 renal
[49] = test system: U251 CNS
[50] = test system: UACC-257 melanoma
[51] = test system: UACC-62 melanoma
[52] = test system: UO-31 renal
[53] = test system: XF 498 CNS
[54] = test system: NCI-H23 lung
[55] = test system: NCI-H522 lung
[56] = test system: SF-268 CNS
[57] = test system: SF-539 CNS

C[Si](C)(C)CC(N)=O
TGI [1]: > 100 µM | TGI [2]: > 100 µM | TGI [3]: > 100 µM | TGI [4]: > 100 µM | TGI [5]: > 100 µM | TGI [6]: > 100 µM | TGI [7]: > 100 µM | TGI [8]: > 100 µM | TGI [9]: > 100 µM | TGI [10]: > 100 µM | TGI [11]: > 100 µM | TGI [12]: > 100 µM | TGI [13]: > 100 µM | TGI [14]: > 100 µM | TGI [15]: > 100 µM | TGI [16]: > 100 µM | TGI [17]: > 100 µM | TGI [18]: > 100 µM | TGI [19]: > 100 µM | TGI [20]: > 100 µM | TGI [21]: > 100 µM | TGI [22]: > 100 µM | TGI [23]: > 100 µM | TGI [24]: > 100 µM | TGI [25]: > 100 µM | TGI [26]: > 100 µM | TGI [27]: > 100 µM | TGI [28]: > 100 µM | TGI [29]: > 100 µM | TGI [30]: > 100 µM | TGI [31]: > 100 µM | TGI [32]: > 100 µM | TGI [33]: > 100 µM | TGI [34]: > 100 µM | TGI [35]: > 100 µM | TGI [36]: > 100 µM | TGI [37]: > 100 µM | TGI [38]: > 100 µM | TGI [39]: > 100 µM | TGI [40]: > 100 µM | TGI [41]: > 100 µM | TGI [42]: > 100 µM | TGI [43]: > 100 µM | TGI [44]: > 100 µM | TGI [45]: > 100 µM | TGI [46]: > 100 µM | TGI [47]: > 100 µM | TGI [48]: > 100 µM | TGI [49]: > 100 µM | TGI [50]: > 100 µM | TGI [51]: > 100 µM | TGI [52]: > 100 µM | TGI [53]: > 100 µM

C[PH+](C)C.C[PH+](C)C.[Au]
TGI [1]: 10.9 µM | TGI [2]: > 100 µM | TGI [3]: > 68.4 µM | TGI [4]: 32.8 µM | TGI [5]: 4.98 µM | TGI [6]: > 34.2 µM | TGI [7]: 11.2 µM | TGI [8]: 15.6 µM | TGI [9]: 68.7 µM | TGI [10]: 12.3 µM | TGI [11]: > 60.6 µM | TGI [12]: 27.7 µM | TGI [13]: 6.21 µM | TGI [14]: 2.51 µM | TGI [15]: 10.4 µM | TGI [16]: 98 µM | TGI [17]: 6.58 µM | TGI [18]: 20.8 µM | TGI [19]: 35.7 µM | TGI [20]: 10.6 µM | TGI [21]: 41.9 µM | TGI [22]: 47.8 µM | TGI [23]: 18 µM | TGI [24]: 3.48 µM | TGI [25]: 7.45 µM | TGI [26]: 28.1 µM | TGI [27]: 4.02 µM | TGI [28]: 13.9 µM | TGI [29]: 34.4 µM | TGI [54]: 11.2 µM | TGI [30]: > 100 µM | GI50 [55]: 0.247 µM | TGI [55]: 0.771 µM | TGI [31]: 15.7 µM | TGI [32]: 24.5 µM | TGI [33]: 24.9 µM | TGI [34]: 19 µM | TGI [35]: 10.1 µM | TGI [36]: 2.89 µM | TGI [37]: 13.1 µM | TGI [56]: 15.2 µM | TGI [38]: > 56.7 µM | TGI [57]: 24.6 µM | TGI [39]: 13.6 µM | TGI [40]: 8.29 µM | TGI [41]: 13.4 µM | TGI [42]: > 90.2 µM | TGI [43]: 25.4 µM | TGI [44]: 21.2 µM | TGI [45]: 30.1 µM | TGI [46]: 52.6 µM | TGI [47]: 9.22 µM | TGI [48]: 35.4 µM | TGI [49]: 15.2 µM | TGI [50]: 29.3 µM | TGI [51]: 18.2 µM | TGI [52]: 54.8 µM | TGI [53]: 7.8 µM
